In patent US20040132188A1, “Use of non-complexing peptides for the preparation of a composition for transfection of a polynucleotide into a cell and compositions useful in gene therapy” (priority 2001, published 2004):
Entries after “also recorded” stand apart in the source; their conditions may differ. Ends that are not written are not given here.

Experiments:
Assay type in all cases: cell-based
293-EBNA cells = experiment: Transfection in vitro, luciferase plasmid pTG11056; details: charge ratio around 1
Experimental: Cells were plated on 24 well plates at a density of 4×10^4 (293-EBNA ) or 7×10^4 (HeLa, Renca) cells/well in DMEM supplemented with 10% FCS. The next day, the medium was replaced by 200 μl serum-free DMEM and plasmid (PTG11056 or pTG11236)/peptide complexes or plasmid/peptide/lipid complexes were prepared in 30 μl 0.9% NaCl or 5% glucose. After 20 min at room temperature these complexes were added to the cells which were then incubated for 2-3 h at 37° C. and 5% CO2 before 1 ml serum-containing DMEM was added. Approximately 20 hours later, cells were lysed by addition of 100 μl 1× Promega lysis buffer, 20 μl of the lysates were analysed for luciferase activity. Proteins were quantified with the bicinchonic acid (BCA) colorimetric method (Smith, Anal. Biochem. 150 (1985), 76-85).
4×10^4 293-EBNA cells, plated on 24 well plates the day before, were transfected with 0.5 μg, 0.1 μg, 0.05 μg arid 0.01 μg of the plasmid pTG11056. The plasmid was either mixed with completely or uncompletely DNA-complexing amounts of ppTG1 in 30 μl 5% glucose and after 20 min at room temperature the mixture was added to the cells which were incubated in 200 μl serum-free medium. Further, pTG11056 was formulated with the established transfection reagents Lipofectin and PEI. […] After twenty hours, cells were washed and luciferase activity was determined in ⅕of the lysed cells.

HeLa cells = experiment: Transfection in the presence of Bafilomycin A; details: 175 nM Bafilomycin A, 150 ng pTG11236
Experimental: Transfection in the presence of Bafilomycin A: 6×10^4 HeLa cells were plated on 24 well plates. Cells were treated with 175 nM Bafilomycin A 30 min before and throughout the transfection (1 h incubation of cells with transfection mix in the absence of serum).
Bafilomycin A is a specific inhibitor of the vacuolar proton pump. Treatment with Bafilomycin inhibits the acidification of late endosomes. HeLa cells were treated with Bafilomycin A (175 nM) 30 min before and throughout the transfection (1 h incubation with transfection complexes in the absence of serum). 6×10^4 cells were transfected with 150 ng pTG11236 using PEI or ppTG1. The luciferase assay was performed 1 day after transfection.

[1] = tested on: WiDr, MDA-MB-435S, SW480 and LoVo; experiment: Transfection of human tumor cell lines; details: peptide/plasmid pTG11236 complexes, luciferase day 1
Experimental: WiDr (ATCC CCL-218), MDA-MB-435S (ATCC HTB-129), SW480 (ATCC CCL-228) and LoVo cell (CCL-229) were cultivated in the appropriate medium with 10% fetal calf serum, 1% gentamycine, 1% glutamine and 3 g/l glucose, in an incubator at 37° C. and 5% CO2.
The transfection efficiencies with plasmid/ppTG1 complexes were tested in the human tumor cells WiDr, MDA-MB-435S, SW480 and LoVo (ATCC) in comparison to lipofectin, PEI and pcTG90/DOPE (1:1) [±] 5.

With GLFKALLKLLKSLWKLLLKA the transfection efficiency (293-EBNA cells; 0.05 μg pTG11056 with 0.065 μg peptide) was “high transfection efficiency”, the luciferase activities (293-EBNA cells; 0.5 μg pTG11056 with 0.65 μg peptide) was “higher than those observed with complexes formed with Lipofectin or PEI” and the “effect of Bafilomycin A on transfection efficiency” value (HeLa cells) was “did not influence”. The “transfection of human tumor cell lines” value [1] was “successfully transfected; also recorded: can efficiently transfect”.
